A word on the IC50: it is the point on the concentration scale where inhibition reaches its midpoint.

Common to all, as to assay type: biochemical
For one assay, the target named is T1, Flt4 (Homo sapiens, UniProt P35916).
T1 construct: purchased ProQinase GmbH (Freiburg, Germany)
As to the kind of experiment: AlphaScreen kinase assay, Flt4. Conditions: read-out: IC50, activity toward kinase Flt4. The procedure, abridged:
(§1)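 Here, phosphorylation of a biotin-tagged peptide was sensed by proximity of streptavidin donor and antibody-bearing acceptor beads. Test compounds covered 8 concentrations by 1:3 serial dilution of 20 mM DMSO stocks.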

Another assay deals with T2, Jnk2 (Homo sapiens, UniProt P45984).
T2 construct: purchased Roche Protein Expression Group (Indianapolis, IN)
As to the kind of experiment: AlphaScreen kinase assay, Jnk2. Conditions: read-out: IC50, activity toward kinase Jnk2. The procedure, abridged: as §1
On the technique in general: Bead proximity is the source of the signal in Alpha formats.

In another assay the target is T3, MAP2K1 (Homo sapiens, UniProt Q02750).
T3 construct: purchased Invitrogen (assay run by Invitrogen)
As to the kind of experiment: Z'-Lyte FRET kinase assay (Invitrogen), MAP2K1. Conditions: read-out: IC50, activity toward kinase MAP2K1.

The next assay deals with T4, Itk (Homo sapiens, UniProt Q08881).
T4 sequence (Q08881 1-620): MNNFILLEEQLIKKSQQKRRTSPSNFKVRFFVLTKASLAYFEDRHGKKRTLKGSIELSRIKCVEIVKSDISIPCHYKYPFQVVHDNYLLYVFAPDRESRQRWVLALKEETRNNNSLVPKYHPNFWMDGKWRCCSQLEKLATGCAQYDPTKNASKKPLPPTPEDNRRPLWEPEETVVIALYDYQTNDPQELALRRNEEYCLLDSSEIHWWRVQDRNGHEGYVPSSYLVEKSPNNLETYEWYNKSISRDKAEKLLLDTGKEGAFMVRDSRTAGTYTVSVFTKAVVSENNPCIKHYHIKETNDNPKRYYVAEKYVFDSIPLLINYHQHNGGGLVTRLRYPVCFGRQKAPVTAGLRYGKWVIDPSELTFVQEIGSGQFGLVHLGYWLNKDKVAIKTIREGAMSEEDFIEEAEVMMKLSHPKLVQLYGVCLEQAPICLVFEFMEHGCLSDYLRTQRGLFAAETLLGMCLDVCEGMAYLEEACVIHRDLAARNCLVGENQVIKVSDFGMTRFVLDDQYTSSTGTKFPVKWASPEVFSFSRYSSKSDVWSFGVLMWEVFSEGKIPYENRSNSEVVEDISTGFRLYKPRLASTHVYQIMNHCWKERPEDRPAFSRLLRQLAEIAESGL
As to the kind of experiment: AlphaScreen kinase assay, Itk. Conditions: read-out: IC50, activity toward kinase Itk. The procedure, abridged:
as §1

Structures are written as SMILES.

T3 sequence (Q02750 whole entry): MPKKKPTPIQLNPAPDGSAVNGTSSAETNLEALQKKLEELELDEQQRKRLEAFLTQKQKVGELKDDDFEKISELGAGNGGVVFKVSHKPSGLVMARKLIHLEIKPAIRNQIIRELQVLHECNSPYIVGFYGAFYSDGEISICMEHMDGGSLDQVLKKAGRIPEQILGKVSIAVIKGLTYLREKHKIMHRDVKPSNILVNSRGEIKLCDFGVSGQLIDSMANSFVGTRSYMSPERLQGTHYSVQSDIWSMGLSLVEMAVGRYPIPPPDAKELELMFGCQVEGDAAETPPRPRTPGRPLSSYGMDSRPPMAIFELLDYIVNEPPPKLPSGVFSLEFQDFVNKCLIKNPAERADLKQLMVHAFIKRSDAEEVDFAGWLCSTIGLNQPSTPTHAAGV
T2 sequence (P45984 whole entry): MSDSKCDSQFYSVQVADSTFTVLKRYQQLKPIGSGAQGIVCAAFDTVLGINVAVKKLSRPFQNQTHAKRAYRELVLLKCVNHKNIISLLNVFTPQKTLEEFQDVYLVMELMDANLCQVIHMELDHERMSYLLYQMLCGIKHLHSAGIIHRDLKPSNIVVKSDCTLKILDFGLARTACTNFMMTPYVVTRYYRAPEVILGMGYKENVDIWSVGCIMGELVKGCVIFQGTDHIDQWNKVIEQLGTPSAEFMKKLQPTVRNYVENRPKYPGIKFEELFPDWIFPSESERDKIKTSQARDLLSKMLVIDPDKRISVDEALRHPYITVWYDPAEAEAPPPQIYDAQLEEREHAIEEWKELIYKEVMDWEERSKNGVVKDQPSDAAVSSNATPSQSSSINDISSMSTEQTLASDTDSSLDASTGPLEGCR
T1 sequence (P35916 25-1363): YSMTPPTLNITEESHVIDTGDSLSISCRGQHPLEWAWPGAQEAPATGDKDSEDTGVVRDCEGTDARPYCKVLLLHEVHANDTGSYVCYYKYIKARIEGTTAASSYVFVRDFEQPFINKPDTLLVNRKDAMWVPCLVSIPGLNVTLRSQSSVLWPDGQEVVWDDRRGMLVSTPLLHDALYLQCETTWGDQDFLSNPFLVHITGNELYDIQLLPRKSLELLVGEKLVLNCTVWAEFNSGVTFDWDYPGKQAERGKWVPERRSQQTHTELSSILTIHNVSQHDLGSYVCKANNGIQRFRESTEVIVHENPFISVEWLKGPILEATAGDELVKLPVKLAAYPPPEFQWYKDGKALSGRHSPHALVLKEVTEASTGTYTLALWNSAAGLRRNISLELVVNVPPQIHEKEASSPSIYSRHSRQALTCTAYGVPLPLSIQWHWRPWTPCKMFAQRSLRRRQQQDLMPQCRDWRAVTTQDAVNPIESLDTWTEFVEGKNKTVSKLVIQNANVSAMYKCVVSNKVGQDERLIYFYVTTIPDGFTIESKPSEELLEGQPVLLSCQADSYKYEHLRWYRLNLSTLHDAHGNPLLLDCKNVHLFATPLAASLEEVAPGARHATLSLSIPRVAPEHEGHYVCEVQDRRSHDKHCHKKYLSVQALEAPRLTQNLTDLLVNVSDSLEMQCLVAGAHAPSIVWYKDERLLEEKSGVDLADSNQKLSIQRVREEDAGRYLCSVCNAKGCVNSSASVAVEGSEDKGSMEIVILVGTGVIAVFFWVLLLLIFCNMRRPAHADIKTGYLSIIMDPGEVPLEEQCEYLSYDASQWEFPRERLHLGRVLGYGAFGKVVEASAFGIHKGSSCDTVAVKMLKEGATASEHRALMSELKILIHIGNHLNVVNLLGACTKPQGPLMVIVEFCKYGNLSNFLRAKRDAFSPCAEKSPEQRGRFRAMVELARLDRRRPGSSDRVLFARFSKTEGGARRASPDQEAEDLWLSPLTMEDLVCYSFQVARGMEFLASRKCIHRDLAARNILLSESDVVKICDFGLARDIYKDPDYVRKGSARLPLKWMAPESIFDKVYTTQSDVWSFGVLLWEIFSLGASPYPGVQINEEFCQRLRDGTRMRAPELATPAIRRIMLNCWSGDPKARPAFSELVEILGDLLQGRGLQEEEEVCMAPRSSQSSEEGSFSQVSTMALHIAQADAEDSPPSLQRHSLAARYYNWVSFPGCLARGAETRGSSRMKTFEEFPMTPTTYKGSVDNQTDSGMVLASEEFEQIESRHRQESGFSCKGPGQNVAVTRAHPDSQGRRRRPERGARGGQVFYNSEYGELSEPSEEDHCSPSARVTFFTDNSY

Turning to `CC(=O)Nc1cccc(-c2cnc3[nH]cc(C(=O)c4cc(O)ccc4F)c3c2)c1` [Compound P-0001], the IC50 on Flt4, at Jnk2 and at MAP2K1 was no more than 10 µM each time.

On to `Nc1cccc(-c2cnc3[nH]cc(C(=O)c4cccc(O)c4F)c3c2)c1` [Compound P-0004, [5-(3-amino-phenyl)-1H-pyrrolo[2,3-b]pyridin-3-yl]-(2-fluoro-3-hydroxy-phenyl)methanone], for which the IC50 at Itk is no more than 10 µM. Consider `O=C(c1cc(O)ccc1F)c1c[nH]c2ncccc12` [Compound P-0005], for which the IC50 on Flt4, at Jnk2 and at MAP2K1 was no more than 10 µM each time. `Oc1ccc(F)c(C(O)c2c[nH]c3ncc(-c4cccnc4)cc23)c1F` (stereo not drawn) [Compound P-0009, 2,4-difluoro-3-[hydroxy-(5-pyridin-3-yl-1H-pyrrolo[2,3-b]pyridin-3-yl)-methyl]-phenol]: the IC50 on Jnk2 and on Itk was no more than 10 µM throughout. `O=C(O)/C=C/c1cccc(-c2cnc3[nH]cc(C(=O)c4cc(O)ccc4F)c3c2)c1` [Compound P-0010]: the IC50 at MAP2K1 is no more than 10 µM. With `O=C(c1cccc(O)c1)c1c[nH]c2ncccc12` [Compound P-0011], the IC50 on Flt4 and at MAP2K1 was no more than 10 µM throughout. Take `O=C(c1cccc(O)c1)c1c[nH]c2nccc(Cl)c12` [Compound P-0012]: the IC50 on Flt4 and on MAP2K1 was no more than 10 µM throughout. Take `NC(=O)c1ccc(-c2ccnc3[nH]cc(C(=O)c4cc(F)ccc4F)c23)cc1` [Compound P-0013]: the IC50 on Jnk2 and at Itk was no more than 10 µM in each case. As for `NC(=O)c1ccc(-c2ccnc3[nH]cc(C(=O)c4ccccc4F)c23)cc1` [Compound P-0014], the IC50 at MAP2K1 was no more than 10 µM. On to `COc1ccc(C(=O)c2c[nH]c3ncc(-c4cccc(/C=C/C(=O)O)c4)cc23)c(Cl)c1` [Compound P-0015], for which the IC50 at Jnk2 and at MAP2K1 was no more than 10 µM throughout. Turning to `Cc1c(O)cccc1C(=O)c1c[nH]c2ncc(-c3ccccc3)cc12` [Compound P-0016, (3-Hydroxy-2-methyl-phenyl)-(5-phenyl-1H-pyrrolo[2,3b]pyridin-3-yl)-methanone], the IC50 at Jnk2 and at Itk was no more than 10 µM in each case. `Cc1ccccc1C(=O)c1c[nH]c2nccc(-c3ccc(C(N)=O)cc3)c12` [Compound P-0017]: the IC50 on MAP2K1 is no more than 10 µM. In the case of `O=C(c1cccc(O)c1)c1c[nH]c2ncc(Br)cc12` [Compound P-0019], the IC50 on Flt4 and at Itk was no more than 10 µM in each case.

As to `CS(=O)(=O)c1cccc(-c2cnc3[nH]cc(C(O)c4c(F)ccc(F)c4F)c3c2)c1` (stereo not drawn) [Compound P-0020], the IC50 on Itk was no more than 10 µM.

Take `Nc1cccc(-c2ccnc3[nH]cc(C(=O)c4ccccc4F)c23)c1` [Compound P-0022]: the IC50 on MAP2K1 is no more than 10 µM. On to `O=C(c1ccc(O)cc1)c1c[nH]c2ncc(-c3cccs3)cc12` [Compound P-0024, (4-Hydroxy-phenyl)-(5-thiophen-2-yl-1H-pyrrolo[2,3-b]pyridin-3-yl)-methanone], for which the IC50 on Flt4 and at Itk was no more than 10 µM in each case. `O=C(c1cccc(O)c1)c1c[nH]c2ncc(Nc3ccccc3)cc12` [Compound P-0025]: the IC50 at Jnk2 and on Itk was no more than 10 µM in each case. For `O=C(c1cccc(O)c1F)c1c[nH]c2ncc(-c3cccnc3)cc12` [Compound P-0027, (2-Fluoro-3-hydroxy-phenyl)-(5-pyridin-3-yl-1H-pyrrolo[2,3-b]pyridin-3-yl)-methanone], the IC50 at Jnk2 and on Itk was no more than 10 µM each time.

For `Nc1ccnc2[nH]cc(C(=O)c3ccccc3)c12` [Compound P-0029], the IC50 at Flt4 and at MAP2K1 was no more than 10 µM throughout.

With `O=C(c1cc(O)ccc1F)c1c[nH]c2ncc(-c3cccs3)cc12` [Compound P-0032], the IC50 on Flt4 is no more than 10 µM. Regarding `O=C(O)/C=C/c1cccc(-c2cnc3[nH]cc(C(=O)c4ccccc4F)c3c2)c1` [Compound P-0033], the IC50 on Jnk2 was no more than 10 µM. As to `NC(=O)c1cccc(-c2cnc3[nH]cc(C(=O)c4cccc(O)c4F)c3c2)c1` [Compound P-0034, 3-[3-(2-Fluoro-3-hydroxy-benzoyl)-1H-pyrrolo[2,3-b]pyridin-5-yl]benzamide], the IC50 at Jnk2 and on Itk was no more than 10 µM throughout. For `CC(=O)Nc1cccc(-c2cnc3[nH]cc(C(=O)c4cccc(O)c4F)c3c2)c1` [Compound P-0035, N-{3-[3-(2-Fluoro-3-hydroxy-benzoyl)-1H-pyrrolo[2,3-b]pyridin-5-yl]-phenyl}-acetamide], the IC50 on Jnk2 and on Itk was no more than 10 µM in each case. Take `O=C(c1cccc(O)c1F)c1c[nH]c2ncc(-c3ccccc3)cc12` [Compound P-0036, (2-fluoro-3-hydroxy-phenyl)-(5-phenyl-1H-pyrrolo[2,3-b]pyridin-3-yl)-methanone]: the IC50 on Itk was no more than 10 µM.

As to `CS(=O)(=O)Nc1cccc(-c2cnc3[nH]cc(C(=O)c4cccc(O)c4F)c3c2)c1` [Compound P-0038, N-{3-[3-(2-Fluoro-3-hydroxy-benzoyl)-1H-pyrrolo[2,3-b]pyridin-5-yl]-phenyl}-methanesulfonamide], the IC50 at Itk was no more than 10 µM. `O=C(c1cccc(O)c1)c1c[nH]c2nccc(-c3cc(F)cc(F)c3)c12` [Compound P-0039]: at Flt4, the IC50 is no more than 10 µM. With `Cc1ccc(F)cc1C(=O)c1c[nH]c2ncc(-c3cccc(N)c3)cc12` [Compound P-0040], the IC50 on Flt4 and on Jnk2 was no more than 10 µM throughout. Regarding `Cn1cc(C(F)(F)F)c(-c2ccc(S(=O)(=O)NCc3c[nH]c4ncccc34)s2)n1` [Compound P-0041], the IC50 at Flt4 and at MAP2K1 was no more than 10 µM in each case.

`Nc1cccc(-c2ccnc3[nH]cc(C(=O)c4cc(F)ccc4F)c23)c1` [Compound P-0046]: the IC50 at MAP2K1 is no more than 10 µM. Still for that read-out and setting: then `O=C(c1ccccc1F)c1c[nH]c2nccc(-c3ccsc3)c12` [Compound P-0051], with no more than 10 µM. As for `Oc1cccc(Cc2c[nH]c3ncc(-c4cccs4)cc23)c1F` [Compound P-0052, 2-Fluoro-3-(5-thiophen-2-yl-1H-pyrrolo[2,3-b]pyridin-3-ylmethyl)-phenol], on Jnk2, the IC50 was no more than 10 µM. Still for that read-out and setting: next, `Oc1cccc(Cc2c[nH]c3ncc(-c4ccsc4)cc23)c1` [Compound P-0056]: no more than 10 µM.

For the compound `Cc1ccc(S(=O)(=O)NCc2c[nH]c3ncccc23)cc1` [Compound P-0058], at MAP2K1, the IC50 is no more than 10 µM. On to `O=C(c1cccc(O)c1F)c1c[nH]c2ncc(Br)cc12` [Compound P-0067, (5-bromo-1H-pyrrolo[2,3-b]pyridin-3-yl)-(2-fluoro-3-hydroxy-phenyl)-methanone], for which the half-maximal inhibitory concentration (IC50) at Itk is no more than 10 µM.

With `Cc1c(NS(C)(=O)=O)cccc1C(=O)c1c[nH]c2ncc(-c3ccccc3)cc12` [Compound P-0082, N-[2-Methyl-3-(5-phenyl-1H-pyrrolo[2,3-b]pyridine-3-carbonyl)-phenyl]-methanesulfonamide], the IC50 at Jnk2 is no more than 10 µM. The same measure, in the same setting: then `CCCS(=O)(=O)Nc1ccc(F)c(C(=O)c2c[nH]c3ncc(-c4cccnc4)cc23)c1F` [Compound P-0088, Propane-1-sulfonic acid [2,4-difluoro-3-(5-pyridin-3-yl-1H-pyrrolo[2,3-b]pyridine-3-carbonyl)-phenyl]-amide], with no more than 10 µM. Consider `COc1ccc(F)c(C(=O)c2c[nH]c3ncc(-c4cccnc4)cc23)c1` [Compound P-0090], for which the IC50 at Flt4 and on Jnk2 was no more than 10 µM each time. As to `Oc1cc(O)cc(Cc2c[nH]c3ncc(-c4ccsc4)cc23)c1` [Compound P-0093], the IC50 on Flt4 was no more than 10 µM. On to `O=C(c1cccc(O)c1)c1c[nH]c2ncc(-c3cccs3)cc12` [Compound P-0196], for which the IC50 at Flt4, on Jnk2 and at Itk was no more than 10 µM throughout. For the compound `O=C(c1cccc(O)c1F)c1c[nH]c2ncc(-c3cccs3)cc12` [Compound P-0521, (2-fluoro-3-hydroxy-phenyl)-(5-thiophen-2-yl-1H-pyrrolo[2,3-b]pyridin-3-yl)-methanone], the IC50 on Flt4, at Jnk2 and on Itk was no more than 10 µM in each case. Take `CCCS(=O)(=O)Nc1ccc(F)c(C(=O)c2c[nH]c3ncc(OC)cc23)c1F` [Compound P-0806, Propane-1-sulfonic acid [2,4-difluoro-3-(5-methoxy-1H-pyrrolo[2,3-b]pyridine-3-carbonyl)-phenyl]-amide]: at MAP2K1, the IC50 is no more than 10 µM. With `CCCCNC(=O)Nc1ccc(F)c(C(=O)c2c[nH]c3ncc(-c4cccnc4)cc23)c1F` [Compound P-1318, 1-Butyl-3-[2,4-difluoro-3-(5-pyridin-3-yl-1H-pyrrolo[2,3-b]pyridine-3-carbonyl)-phenyl]-urea], the IC50 at Jnk2 is no more than 10 µM.
